Entries after “also recorded” stand apart in the source; their conditions may differ. Where two headings read alike, the source gives them in different places. Each block holds one molecule with its values, some of them ahead of it.
Key:
MBNL1/(CUG)4 complex = molecular target: T1, MBNL1/(CUG)4 complex (Homo sapiens, UniProt Q9NR56); test: competitive EMSA (gel shift assay), disruption of the MBNL1/(CUG)4 complex; assay type: binding
T1 construct: The MBNL1 medium construct (1-260) was purified as previously described; made in house
T1 sequence (Q9NR56 1-260): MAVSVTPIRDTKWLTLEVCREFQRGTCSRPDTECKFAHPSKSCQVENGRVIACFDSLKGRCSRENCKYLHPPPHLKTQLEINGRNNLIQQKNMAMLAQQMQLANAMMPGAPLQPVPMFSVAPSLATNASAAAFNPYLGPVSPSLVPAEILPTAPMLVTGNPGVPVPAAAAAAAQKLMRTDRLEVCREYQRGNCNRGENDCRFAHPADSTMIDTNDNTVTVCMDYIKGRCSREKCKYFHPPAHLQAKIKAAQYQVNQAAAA

[1] = tested on: TNNT2 minigene exon 5 splicing in HeLa cells expressing 960 CUG repeats; test: TNNT2 minigene splicing rescue in HeLa cell DM1 model; assay type: cell-based; details: for rescue of TNNT2 exon 5 mis-splicing: propamidine up to 130 μM; for EC50: read-out: concentration needed to observe 50% rescue (EC50) of TNNT2 mis-splicing, exon 5 inclusion, 16-18 hours
[2] = tested on: INSR minigene exon 11 splicing in HeLa cells expressing 960 CUG repeats; test: INSR minigene splicing rescue in HeLa cell DM1 model; assay type: cell-based; details: for EC50: HeLa cell DM1 model, exon 11 inclusion, 16-18 hours, read-out: EC50 for rescue of INSR mis-splicing
Clcn1 exon 7a = Clcn1 exon 7a splicing in vastus muscle of HSALR DM1 mice; assay type: in vivo
Experimental: (§1) Homozygous HSALR transgenic mice in line 20b (FVB inbred background) were previously described (Mankodi et al., Science 289″1769-1773, 2000). Gender-matched mice of 10-14 weeks of age were treated with heptamidine at the indicated dose by daily intraperitoneal injection for 7 days. Control mice received 5% glucose injections. Mice were sacrificed 1 d after the final injection and vastus (quadriceps) muscle was obtained for splicing analysis. Mice in the withdrawal (WD) group were treated with 30 mg/kg heptamidine for 7 days and then left untreated for 10 days before sacrifice. […] RNA was isolated, reverse transcribed, and amplified by PCR, and analyzed on agarose gels using a fluorimager as previously described (Warf et al., Proc. Natl. Acad. Sci. USA 106:18551-18556, 2009).
The HSA^LR DM1 mouse model expresses 220 CUG repeats under the skeletal promoter (Mankodi et al., Science 289″1769-1773, 2000). […] Wild type adult mice include exon 7a of the Clcn1 pre-mRNA at a level of 4±1% while HSA^LR mice include exon 7a at steady state levels of 47±1% (FIG. 3, note that exon 7a inclusion isoforms are subject to nonsense mediated decay).

Atp2a1 exon 22 = Atp2a1 exon 22 splicing in vastus muscle of HSALR DM1 mice; assay type: in vivo
Experimental: as §1
The MBNL regulated exon of Atp2a1 (exon 22) is included in the presence of MBNL proteins (positively regulated). Wild type adult mice included this exon 100±1% of the time (FIG. 4). When MBNL proteins are sequestered by the 220 CUG repeats present in HSALR mice, exon 22 inclusion drops to 23±3%. […] Additionally, after being treated with 30 mg/kg heptamidine for 7 d, mice went untreated for 10 days, and splicing of Clcn1 and Atp2a1 was examined. […] The severity of myotonia was graded by insertion of extracellular recording electrodes into muscle tissue (electromyography) under general anesthesia.

HSALR mice = test: electromyography, myotonia grade in vastus muscle of HSALR mice; assay type: in vivo; details: 20 or 30 mg/kg for 7 days, controls grade 3
Experimental: as §1
Electromyography was performed under general anesthesia as described previously (Kanadia, Science 302:1978-1980, 2003). Briefly, at least 10 needle insertions were performed in vastus muscle and myotonic discharges were graded on a four point scale: 0, no myotonia; 1, occasional myotonic discharge in less than 50% of needle insertions; 2, myotonic discharge with more than 50% of insertions; and 3, myotonic discharge with nearly all insertions.

water solubility = assay type: physicochemical
[3] = molecular target: T2, MBNL1 (residues 1-260, medium construct) (UniProt Q9NR56 Q9NR56:1-260); test: EMSA; 250 nM MBNL1, 0.5 nM RNA, 175 mM NaCl, 5 mM MgCl2, 20 mM Tris pH 7.5, heparin 0.1 mg/mL, RT; complex disrupted by diamidines (pentamidine IC50 39 uM, small-molecule competition); details: label: 5'-32P; hairpin with UUCG cap
T2 sequence: T1 sequence (Q9NR56 1-260)
Experimental: The 5′ end labeled (CUG)₄ RNA was heated at 95° C. for 3 minutes in 250 mM NaCl, 25 mM MgCl₂, and 75 mM Tris pH 7.5 by heating at 95° C. for 3 minutes. The reaction was cooled on ice for 5 minutes, BSA and heparin were added, and the reaction cooled another 5 minutes. MBNL1 was then added to the RNA and incubated at room temperature (RT) for 10 minutes. Amidine derivative was added, followed by another 5 minute RT incubation, followed by the addition of bromophenol blue. The final reaction volume of 10 μL was incubated at RT for 25 minutes. Final reaction conditions were 0.5 nM (CUG)₄, 175 mM NaCl, 20 mM Tris pH 7.5, 5 mM MgCl₂, 2 mg/mL BSA, 0.1 mg/mL heparin, 1.25 mM β-mercaptoethanol, 1.25% (v/v) glycerol, 250 μM bromophenol blue, and 250 nM MBNL. Bromophenol blue was added at 250 μM since the activity of pentamidine is dependent upon bromophenol blue in vitro. […] IC₅₀ values were calculated as previously described (Warf et al., Proc. Natl. Acad. Sci. USA 106:18551-18556, 2009). In brief, gels were quantified using ImageQuant™ software (Molecular Dynamics/GE Healthcare, Piscataway, N.J.). The percent of RNA bound was determined by taking the ratio of the RNA:protein complex (including any well shifting) to the total RNA, per lane. IC₅₀ values were determined with KaleidaGraph (Synergy, Reading, Pa.) software using the equation: […]

[4] = competitive EMSA as in Example 1, Table 2, read-out: IC50 of diamidine derivatives
[5] = competitive EMSA, 250 nM MBNL, 0.5 nM (CUG)4, 250 μM bromophenol blue, ± standard deviation of triplicate, read-out: IC50 of diamidine analogs
[6] = 30 mg/kg for 7 days, then 10 days untreated
[7] = HSALR mice, daily intraperitoneal for 7 days

Molecule: N=C(N)c1ccc(OCCCCCCCOc2ccccc2)cc1 [drawing 8 n=7]
IC50 (MBNL1/(CUG)4 complex; [4]): 253 µM

Molecule: N=C(N)c1ccc(OCCCOc2ccccc2)cc1 [drawing 8 n=3]
IC50 (MBNL1/(CUG)4 complex; [4]): 281 µM

Molecule: N=C(N)c1ccc(OCCCCCCCCOc2ccc(C(=N)N)cc2)cc1 [Octamidine]
IC50 (MBNL1/(CUG)4 complex; [5]): 20 ± 1 µM
rescue of TNNT2 exon 5 mis-splicing [1]: slight rescue of TNNT2 mis-splicing
EC50 [2]: 7 ± 1 µM
cell toxicity (HeLa cells): toxicity issues

Molecule: N=C(N)c1ccc(OCCCCCCOc2ccc(C(=N)N)cc2)cc1 [Hexamidine]
IC50 (MBNL1/(CUG)4 complex; [5]): 26 ± 2 µM
EC50 ([1]; Homo sapiens): 12 ± 3 µM
EC50 ([2]; Homo sapiens): 15 ± 1 µM
cell toxicity (HeLa cells): low toxicity

Molecule: CC(=O)ON=C(N)c1ccc(OCCCCCCCOc2ccc(C(N)=NOC(C)=O)cc2)cc1 [acetoxy-amdine derivative of heptamidine]
cell toxicity of prodrugs relative to parent amidine (HeLa cells): less toxic than heptamidine

Molecule: N=C(N)c1ccc(OCCCCc2ccccc2)cc1 [drawing 9 n=4]
IC50 (MBNL1/(CUG)4 complex; [4]): 212 µM

Molecule: N=C(N)c1ccc(OCCCCCOc2ccc(C(=N)N)cc2)cc1 [Pentamidine, reference compound]
IC50 (MBNL1/(CUG)4 complex; [5]): 39 ± 2 µM
EC50 ([1]; Homo sapiens): 20 ± 4 µM
rescue of TNNT2 exon 5 mis-splicing [1]: lowered exon 5 inclusion levels below that of wild type
EC50 ([2]; Homo sapiens): 31 ± 2 µM

Molecule: CC(=O)ONC(=N)c1ccc(OCCCCCOc2ccc(C(=N)NOC(C)=O)cc2)cc1 [compound 128, 1,5-bis(4-acetoxyamidinophenoxy)pentane (diacetyldiamidoximeester)]
activity of pentamidine prodrugs in the INSR splicing assay ([2]; HeLa cell splicing assay, FIG. 6): showed activity in the splicing assay
cell toxicity of prodrugs relative to parent amidine (HeLa cells): less toxic than pentamidine

Molecule: N=C(N)c1ccc(OCCCCCCCOc2ccc(C(=N)N)cc2)cc1 [Heptamidine]
IC50 (MBNL1/(CUG)4 complex; [5]): 20 ± 2 µM
EC50 ([1]; Homo sapiens): 15 ± 6 µM
EC50 ([2]; Homo sapiens): 9 ± 1 µM
Clcn1 splicing after withdrawal (Clcn1 exon 7a; [6]): exon inclusion levels returned to control HSALA levels; also recorded: complete return to disease state splicing levels
Clcn1 exon 7a inclusion (Clcn1 exon 7a; HSALR mice, 20 mg/kg daily intraperitoneal for 7 days, wild type 4±1%, HSALR 47±1%): 6±1%
rescue of Clcn1 exon 7a mis-splicing (Clcn1 exon 7a; [7]): dose-dependent reduction of exon 7a inclusion; also recorded: Complete rescue
Atp2a1 splicing after withdrawal (Atp2a1 exon 22; [6]): exon inclusion levels returned to control HSALA levels; also recorded: complete return to disease state splicing levels
rescue of Atp2a1 exon 22 missplicing (Atp2a1 exon 22; HSALR mice, 30 mg/kg): about 50%
Atp2a1 exon 22 inclusion (Atp2a1 exon 22; HSALR mice, 30 mg/kg/day for 7 days, wild type 100±1%, HSALR 23±3%): 62±4%
rescue of Atp2a1 exon 22 mis-splicing (Atp2a1 exon 22; [7]): full rescue with heptamidine could not be reached; also recorded: Partial rescue of missplicing
myotonia grade (electromyography) (HSALR mice): grade 1 (occasional myotonic discharge) or grade 0; also recorded: occasional myotonic discharges with less than 50% of insertions (grade 1) or no myotonia (grade 0)
water solubility (water solubility): retaining water solubility

Molecule: N=C(N)c1ccc(OCCCOc2ccc(C(=N)N)cc2)cc1 [Propamidine]
IC50 (MBNL1/(CUG)4 complex; [5]): 250 ± 10 µM
rescue of TNNT2 exon 5 mis-splicing [1]: did not have the desired effect on TNNT2 mis-splicing
EC50 ([2]; Homo sapiens): 64 ± 10 µM
concentration that is toxic / causes significant cell death (HeLa cells; human): > 130 µM

Molecule: N=C(N)c1ccc(OCCCCCCCCCOc2ccc(C(=N)N)cc2)cc1 [Nonamidine]
IC50 (MBNL1/(CUG)4 complex; [5]): 14 ± 1 µM
rescue of TNNT2 exon 5 mis-splicing [1]: unable to rescue splicing defects before causing significant cell death
EC50 [2]: 6 ± 1 µM
concentration that is toxic / causes significant cell death (HeLa cells; HeLa cells, TNNT2 splicing assay): 4 µM

Molecule: GCUGCUGUUCGCUGCUG (ssRNA) [(CUG)4 hairpin RNA]
binding result [3]: binds

Continued, in another order:

IC50 (MBNL1/(CUG)4 complex; [4]): 414 µM
Molecule: N=C(N)c1ccc(OCCc2ccccc2)cc1 [drawing 9 n=2]

IC50 (MBNL1/(CUG)4 complex; [4]): 199 µM
Molecule: N=C(N)c1ccc(OCCCCCOc2ccccc2)cc1 [drawing 8 n=5]

IC50 (MBNL1/(CUG)4 complex; [4]): 209 µM
Molecule: N=C(N)c1ccc(OCCCCOc2ccccc2)cc1 [drawing 8 n=4]

IC50 (MBNL1/(CUG)4 complex; [5]): 85 ± 17 µM
EC50 [1]: 23 ± 5 µM
EC50 [2]: 34 ± 7 µM
Molecule: N=C(N)c1ccc(OCCCCOc2ccc(C(=N)N)cc2)cc1 [Butamidine]
rescue of TNNT2 exon 5 mis-splicing [1]: lowered exon 5 inclusion levels below that of wild type

IC50 (MBNL1/(CUG)4 complex; [4]): 169 µM
Molecule: N=C(N)c1ccc(OCCCc2ccccc2)cc1 [drawing 9 n=3]

IC50 (MBNL1/(CUG)4 complex; [4]): 236 µM
Molecule: N=C(N)c1ccc(OCCCCCCOc2ccccc2)cc1 [drawing 8 n=6]
